Data taken from PubChem BioAssay AID1963963 (Molecular Pharmacology Branch, DTP, NCI, 2024).

System: 958667-338-R-J2-PDC tumor spheroids viability
Experiment: Anticancer human tumor 958667-338-R-J2-PDC patient-derived colon adenocarcinoma cell line growth inhibition [PI3K]
Conditions: spheroids with HUVEC and MSC; for IC50: curve of first compound; for viability, T/C: stronger effect = lower value
How it was run: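 Spheroid viability read-out. Co-cultures contained the tumor line plus HUVEC and human MSCs. Each agent was paired with a PI3K inhibitor (inavolisib, alpelisib, duvelisib, copanlisib) across half-log dilutions starting at clinical Cmax, or at 10 microM when Cmax was unknown.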
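Further: spheroids exposed to compounds for seven days before readout.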

`CNC(=O)c1ccc(N2C(=S)N(c3ccc(C#N)c(C(F)(F)F)c3)C(=O)C2(C)C)cc1F` + CC(Nc1ncnc2nc[nH]c12)c1cc2cccc(Cl)c2c(=O)n1-c1ccccc1 was tested, and the IC50 (second compound 0.0316 µM) was > 10000 nM, the IC50 (second compound 0.1 µM) was > 10000 nM and the IC50 (second compound 0.316 µM) was > 10000 nM. The IC50 (second compound 1 µM) was > 10000 nM, the IC50 (second compound 3.16 µM) was > 10000 nM and the IC50 (second compound 10 µM) was > 10000 nM. For the same compound, the viability, T/C (second compound 0.0316 µM, first compound 0.0316 µM) was 103%, the viability, T/C (second compound 0.0316 µM, first compound 0.1 µM) was 94.7% and the viability, T/C (second compound 0.0316 µM, first compound 0.316 µM) was 105%. It also gave a viability, T/C (second compound 0.0316 µM, first compound 1 µM) of 101%, a viability, T/C (second compound 0.0316 µM, first compound 3.16 µM) of 113% and a viability, T/C (second compound 0.0316 µM, first compound 10 µM) of 99.2%. For the same compound, the viability, T/C (second compound 0.1 µM, first compound 0.0316 µM) was 119%, the viability, T/C (second compound 0.1 µM, first compound 0.1 µM) was 98.7% and the viability, T/C (second compound 0.1 µM, first compound 0.316 µM) was 87.1%. For the same compound, the viability, T/C (second compound 0.1 µM, first compound 1 µM) was 83.5%, the viability, T/C (second compound 0.1 µM, first compound 3.16 µM) was 114% and the viability, T/C (second compound 0.1 µM, first compound 10 µM) was 87%. For the same compound, the viability, T/C (second compound 0.316 µM, first compound 0.0316 µM) was 103%, the viability, T/C (second compound 0.316 µM, first compound 0.1 µM) was 88.3% and the viability, T/C (second compound 0.316 µM, first compound 0.316 µM) was 101%. The viability, T/C (second compound 0.316 µM, first compound 1 µM) was 107%, the viability, T/C (second compound 0.316 µM, first compound 3.16 µM) was 121% and the viability, T/C (second compound 0.316 µM, first compound 10 µM) was 107%. For the same compound, the viability, T/C (second compound 1 µM, first compound 0.0316 µM) was 96.7%, the viability, T/C (second compound 1 µM, first compound 0.1 µM) was 91.3% and the viability, T/C (second compound 1 µM, first compound 0.316 µM) was 102%. For the same compound, the viability, T/C (second compound 1 µM, first compound 1 µM) was 96.4%, the viability, T/C (second compound 1 µM, first compound 3.16 µM) was 104% and the viability, T/C (second compound 1 µM, first compound 10 µM) was 94%. The viability, T/C (second compound 3.16 µM, first compound 0.0316 µM) was 91.8%, the viability, T/C (second compound 3.16 µM, first compound 0.1 µM) was 86.3% and the viability, T/C (second compound 3.16 µM, first compound 0.316 µM) was 72.7%. For the same compound, the viability, T/C (second compound 3.16 µM, first compound 1 µM) was 101%, the viability, T/C (second compound 3.16 µM, first compound 3.16 µM) was 119% and the viability, T/C (second compound 3.16 µM, first compound 10 µM) was 84.2%. For the same compound, the viability, T/C (second compound 10 µM, first compound 0.0316 µM) was 103%, the viability, T/C (second compound 10 µM, first compound 0.1 µM) was 96.5% and the viability, T/C (second compound 10 µM, first compound 0.316 µM) was 101%. The viability, T/C (second compound 10 µM, first compound 1 µM) was 87.9%, the viability, T/C (second compound 10 µM, first compound 3.16 µM) was 115% and the viability, T/C (second compound 10 µM, first compound 10 µM) was 74.8%.

Work on `Cn1cnc2c(F)c(Nc3ccc(Br)cc3Cl)c(C(=O)NOCCO)cc21` + CC(Nc1ncnc2nc[nH]c12)c1cc2cccc(Cl)c2c(=O)n1-c1ccccc1 yielded an IC50 (second compound 0.0316 µM) of 365 nM, an IC50 (second compound 0.1 µM) of 261 nM and an IC50 (second compound 0.316 µM) of 363 nM. For the same compound, the IC50 (second compound 1 µM) was 280 nM, the IC50 (second compound 3.16 µM) was 210 nM and the IC50 (second compound 10 µM) was 90.4 nM. It also gave a viability, T/C (second compound 0.0316 µM, first compound 0.00949 µM) of 89.8%, a viability, T/C (second compound 0.0316 µM, first compound 0.03 µM) of 80.5% and a viability, T/C (second compound 0.0316 µM, first compound 0.0949 µM) of 71%. The viability, T/C (second compound 0.0316 µM, first compound 0.3 µM) was 52.2%, the viability, T/C (second compound 0.0316 µM, first compound 0.949 µM) was 35.5% and the viability, T/C (second compound 0.0316 µM, first compound 3 µM) was 20%. For the same compound, the viability, T/C (second compound 0.1 µM, first compound 0.00949 µM) was 84.3%, the viability, T/C (second compound 0.1 µM, first compound 0.03 µM) was 80.6% and the viability, T/C (second compound 0.1 µM, first compound 0.0949 µM) was 62.6%. The viability, T/C (second compound 0.1 µM, first compound 0.3 µM) was 49.3%, the viability, T/C (second compound 0.1 µM, first compound 0.949 µM) was 31.3% and the viability, T/C (second compound 0.1 µM, first compound 3 µM) was 20.3%. The viability, T/C (second compound 0.316 µM, first compound 0.00949 µM) was 80.7%, the viability, T/C (second compound 0.316 µM, first compound 0.03 µM) was 97.4% and the viability, T/C (second compound 0.316 µM, first compound 0.0949 µM) was 74.8%. For the same compound, the viability, T/C (second compound 0.316 µM, first compound 0.3 µM) was 53.3%, the viability, T/C (second compound 0.316 µM, first compound 0.949 µM) was 32.2% and the viability, T/C (second compound 0.316 µM, first compound 3 µM) was 19.8%. It also gave a viability, T/C (second compound 1 µM, first compound 0.00949 µM) of 73.3%, a viability, T/C (second compound 1 µM, first compound 0.03 µM) of 83.5% and a viability, T/C (second compound 1 µM, first compound 0.0949 µM) of 59.7%. For the same compound, the viability, T/C (second compound 1 µM, first compound 0.3 µM) was 48.2%, the viability, T/C (second compound 1 µM, first compound 0.949 µM) was 33.9% and the viability, T/C (second compound 1 µM, first compound 3 µM) was 17%. The viability, T/C (second compound 3.16 µM, first compound 0.00949 µM) was 85.3%, the viability, T/C (second compound 3.16 µM, first compound 0.03 µM) was 81.6% and the viability, T/C (second compound 3.16 µM, first compound 0.0949 µM) was 57%. For the same compound, the viability, T/C (second compound 3.16 µM, first compound 0.3 µM) was 44.3%, the viability, T/C (second compound 3.16 µM, first compound 0.949 µM) was 31.3% and the viability, T/C (second compound 3.16 µM, first compound 3 µM) was 13.3%. The viability, T/C (second compound 10 µM, first compound 0.00949 µM) was 78.3%, the viability, T/C (second compound 10 µM, first compound 0.03 µM) was 62.9% and the viability, T/C (second compound 10 µM, first compound 0.0949 µM) was 45.2%. It also gave a viability, T/C (second compound 10 µM, first compound 0.3 µM) of 41.7%, a viability, T/C (second compound 10 µM, first compound 0.949 µM) of 20.7% and a viability, T/C (second compound 10 µM, first compound 3 µM) of 10.4%.
